Laboratory results taken from publication PMC10226041, “Discovery of Ruthenium(II) Metallocompound and Olaparib Synergy for Cancer Combination Therapy” (Journal of Medicinal Chemistry, 2023).
Counter-ions that a name gives are not always drawn. One block for each molecule: values may come before it.

Tests used:
MDA-MB-231 cells [1] = experiment: Drug interaction analysis (Chou and Talalay combination index) with Olaparib from MTT data; format: cell-based, human; settings: MDA-MB-231, Olaparib 10 μM, result in words
Experimental: (§1) Following treatment, solutions were removed, thiazolyl blue tetrazolium bromide (MTT, 0.5 mg/mL) reagent was added to the cells, and plates were incubated for 4 h. The reduced purple formazan crystals were solubilized with 100 μL of DMSO, and the absorbance at 570 nm (620 nm as reference wavelength) was measured using a microplate reader. The average in percent reduction of cell viability was expressed relative to untreated control cells. The combinatorial effect was evaluated by the generation of the compound dose–response curve and a shift of the IC50 value in the presence or absence of Olaparib (graphed and calculated using GraphPad Prism software).
Dose–effect curves for single agents and their combinations were generated from the MTT assay data, and the combination index (CI) values were calculated using CalcuSyn and CompuSyn software (Biosoft, Cambridge, UK) as established by Chou and Talalay.[43] CI < 0.9 indicates synergism, CI = 0.9–1.0 indicates additive, and CI > 1 indicates antagonism. GraphPad Prism Software was used to generate a 3-color scale based on CI values obtained, where synergism is represented by green, additive by yellow, and antagonism by red. The colors of each CI value were interpolated in between these constraints accordingly.

MDA-MB-231 cells [2] = experiment: MTT cell viability assay, MDA-MB-231 cells; format: cell-based, human; settings: for IC50 / fold shift = IC50 (−OLAP)/IC50 (+OLAP): MDA-MB-231, 72 h; for IC50: MTT, read-out: IC50, –OLAP (compound alone); for fold shift = IC50 (−OLAP)/IC50 (+OLAP): Olaparib 10 μM
Experimental: as §1

[3] = octanol/water partition coefficient; source not given; cited from earlier work
[4] = tested on: TNBC and lung cancer cells; parameters: method as in PMID 31898884, PMID 36702871; settings: sub-cytotoxic concentrations of Ru-PIP; cited from earlier work
[5] = tested on: wild-type zebrafish (Danio rerio) embryos; settings: in vivo
Experimental: Wild-type zebrafish embryos were obtained from breeding facilities at Danio Assay Laboratories Sdn.Bhd. (Universiti Putra Malaysia). […] Danio-SprintM embryo media were used as a control. Survival and hatching rates were observed under a microscope attached with a digital camera and imaged at 24, 48, 72, and 96 hpf. […] Four lethal endpoints were evaluated including coagulated embryos, lack of somite formation, non-detachment of the tail, and lack of heartbeat. All these characteristics were recorded every 24 hpf, except the heartbeat, which is visible after 48 hpf.

MCF10A cells = experiment: MTT cell viability assay, MCF10A normal breast cells; format: cell-based; settings: Homo sapiens, MCF-10A, 72 h, single agent, read-out: IC50 MCF10A, –OLAP (single agent)
Experimental: as §1, with “Cells were seeded at 5 × 10^3 cells/well for MCF7 cells and 1 × 10^4 cells/well for MDA-MB-231 and MCF10A cells, respectively, in 96-well plates, allowed to adhere for 24 h, and treated as described in the main text. Following” for “Following”

MCF7 cells [6] = experiment: Clonogenic survival assay, MCF7 cells; format: cell-based; settings: Homo sapiens, 72 h treatment, read-out: IC50 values of OLAP, – Compound
Experimental: (§2) Cells were seeded at 1 × 10^3 cells/well in 6-well plates, allowed to adhere for 24 h, and treated as described in the main text. After treatment, solutions were removed, and cells were cultured in compound-free medium for 7–10 days to allow colony formation. Cells were then washed (1× PBS, twice), fixed (ice-cold 100% methanol, 15–20 min, 4 °C), and stained (0.5% crystal violet solution, 20 min). The staining solution was washed with water, and images were photographed with a digital camera. Individual colonies were counted using ImageJ software, and the survival fraction was determined (normalized to controls).

MDA-MB-231R cells = experiment: Clonogenic survival assay, Olaparib-resistant MDA-MB-231R cells; format: cell-based, human
Experimental: The Olaparib-resistant MDA-MB-231 cell line (MDA-MB-231R) was developed from the parental MDA-MB-231 cell line by long-term drug exposure (∼8 months, 10–100 μM Olaparib) in a similar manner described by Kim et al.[45] MDA-MB-231 cells were seeded at a density of 1.5 × 10^5 cells in a 25 cm^2 flask and allowed to adhere for 24 h. Cells were treated with a starting Olaparib concentration of 10 μM, and treatments were refreshed every 3 days. After each week, the confluency was assessed: if confluency is <50%, the treatment was stopped; if confluency is at 50–70%, the treatment was maintained; and if confluency is over 70%, a portion of the cells was frozen. When the cells adapted to a new drug concentration, cells were reseeded at a density of 1.5 × 10^5 cells in a new 25 cm^2 flask and allowed to adhere before the next exposure to the increased concentration of Olaparib. This procedure was repeated to achieve a final concentration of Olaparib of 100 μM. Following this, MDA-MB-231R cells were maintained in a low concentration of Olaparib (10 μM) to preserve resistance. […]
Cells were seeded at 1 × 10^3 cells/well in 6-well plates, allowed to adhere for 24 h, and treated as described in the main text. […] Individual colonies were counted using ImageJ software, and the survival fraction was determined (normalized to controls).

MCF7 cells [7] = experiment: MTT cell viability assay, MCF7 cells; format: cell-based, human; settings: for IC50: Homo sapiens, MCF7, 72 h, MTT, single agent, read-out: IC50 MCF7, –OLAP (single agent)
Experimental: as §1, with “Cells were seeded at 5 × 10^3 cells/well for MCF7 cells and 1 × 10^4 cells/well for MDA-MB-231 and MCF10A cells, respectively, in 96-well plates, allowed to adhere for 24 h, and treated as described in the main text. Following” for “Following”

MDA-MB-231 cells [8] = settings: 72 h, 10 µM
Experimental: Cells were seeded at 3 × 10^5 cells/well in 6-well plates, allowed to adhere for 24 h, and treated as described in the main text. After treatment, cells were trypsinized and washed with 1× PBS twice. This was followed by the addition of 500 μL of 1× binding buffer and 5 μL of Annexin V-FITC (Invitrogen). The cell-containing mixture was incubated for 20 min at RT. A total of 5 μL of PI (20 μg/mL) was added prior to flow cytometric analysis using a flow cytometer, and results were analyzed using NovoExpress software. For each sample, a minimum of 10,000 cells were counted.

MDA-MB-231 cells [9] = experiment: Clonogenic survival assay, MDA-MB-231 cells; format: cell-based; settings: Homo sapiens; MDA-MB-231, clonogenic, 72 h treatment; read-out: IC50 values of OLAP, – Compound
Experimental: as §2

MCF7 3D tumor spheroids = experiment: Spheroid growth inhibition, MCF7 spheroids; format: cell-based, human; settings: compound 1 μM in combination with Olaparib 10 μM
Experimental: (§3) Spheroids were grown as described initially. […] Spheroids were treated with the identified combinations and single drugs alone for 72 h. Every other day thereafter, 50% of the treatment-containing medium was replaced. Spheroids were imaged every three days for a period of 12 days using a microscope attached to a digital camera. The structural integrity of spheroids following treatments was observed, and the volume was measured as initially described.

[10] = tested on: MDA-MB-231 3D tumor spheroids; experiment: Spheroid growth inhibition, MDA-MB-231 spheroids; format: cell-based, human; settings: compound 1 μM in combination with Olaparib 10 μM
Experimental: as §3

SMILES: Cc1cc(C)c2nc3c4ccc[n+]5c4c4c(ccc[n+]4[Ru-4]546([n+]5ccccc5-c5cccc[n+]54)[n+]4ccccc4-c4cccc[n+]46)c3nc2c1 [Compound 5, [Ru(bpy)2(dmdppz)]^2+]
IC50 (MDA-MB-231 cells [2]; single agent): 75.1 ± 12.2 µM | fold shift = IC50 (−OLAP)/IC50 (+OLAP) (MDA-MB-231 cells [2]): <0.8

SMILES: c1ccc(-c2nc3c4ccc[n+]5c4c4c(ccc[n+]4[Ru-4]546([n+]5cccc7ccc8ccc[n+]4c8c75)[n+]4cccc5ccc7ccc[n+]6c7c54)c3[nH]2)cc1 [Compound 3, [Ru(phen)2(PIP)]^2+]
Synergy with Olaparib (CI scores of less than 0.9 considered synergistic) (MDA-MB-231 cells [1]): additive relationship with Olaparib | IC50 (MDA-MB-231 cells [2]; single agent): 29.2 ± 3.7 µM | fold shift = IC50 (−OLAP)/IC50 (+OLAP) (MDA-MB-231 cells [2]): 3.7

SMILES: Cc1cc(C)c2nc3c4ccc[n+]5c4c4c(ccc[n+]4[Ru-4]546([n+]5cc(C)ccc5-c5ccc(C)c[n+]54)[n+]4cc(C)ccc4-c4ccc(C)c[n+]46)c3nc2c1 [Compound 6, [Ru(5,5′dmb)2(dmdppz)]^2+]
IC50 (MDA-MB-231 cells [2]; single agent): 87.4 ± 2.3 µM | fold shift = IC50 (−OLAP)/IC50 (+OLAP) (MDA-MB-231 cells [2]): 5.0

SMILES: [Ru+2].c1ccc(-c2nc3c4cccnc4c4ncccc4c3[nH]2)cc1.c1ccc2nc3c4cccnc4c4ncccc4c3nc2c1.c1ccc2nc3c4cccnc4c4ncccc4c3nc2c1 [Ru-PIP, [Ru(dppz)2(PIP)]^2+]
increase in Olaparib potency [4]: > 300 fold

SMILES: Cc1nc2c(O)cccc2c(=O)[nH]1 [NU1025]
Log P [3]: 0.47

SMILES: O=C(c1cc(Cc2n[nH]c(=O)c3ccccc23)ccc1F)N1CCN(C(=O)C2CC2)CC1 [Olaparib]
pericardial edema (PE) ([5]; 96 hpf, 25 mg/L): 45.8% ± 17.7 | spinal deformity (SD) ([5]; 96 hpf, 25 mg/L): 75.0% ± 23.6 | yolk sac edema (YSE) ([5]; 96 hpf, 25 mg/L): 45.8% ± 29.5 | IC50 (MCF10A cells): > 100 µM | IC50 (MCF7 cells [6]): 2.72 ± 0.45 µM | level of resistance of MDA-MB-231R compared to parental MDA-MB-231 cells (MDA-MB-231R cells; clonogenic survival assay): 28 fold | SI MCF7 (IC50 MCF10A/IC50 cancer cell line), single agent (MCF7 cells [7]; 72 h): >1.4 | IC50 (MCF7 cells [7]): 69.6 ± 6.3 µM | IC50 (MDA-MB-231 cells [2]; Homo sapiens, single agent): 80.9 ± 15 µM | SI MDA-MB-231 (IC50 MCF10A/IC50 cancer cell line), single agent (MDA-MB-231 cells [2]; single agent, 72 h): >1.2 | percentage of cells in quadrant Q3-1 (MDA-MB-231 cells [8]): 0.34% | percentage of cells in quadrant Q3-2 (apoptotic) (MDA-MB-231 cells [8]): 1.44% | percentage of cells in quadrant Q3-3 (MDA-MB-231 cells [8]): 82.66% | percentage of cells in quadrant Q3-4 (apoptotic) (MDA-MB-231 cells [8]): 15.56% | IC50 (MDA-MB-231 cells [9]): > 10 µM

SMILES: Nc1ccn([C@@H]2O[C@H](CO)[C@@H](O)C2(F)F)c(=O)n1 [gemcitabine hydrochloride, reference compound]
IC50 (MDA-MB-231 cells [2]; Homo sapiens, single agent): 1.6 ± 0.8 µM | fold shift = IC50 (−OLAP)/IC50 (+OLAP) (MDA-MB-231 cells [2]): 2.7

SMILES: N.N.[Cl][Pt][Cl] [cisplatin, reference compound]
IC50 (MDA-MB-231 cells [2]; single agent): 35.3 ± 5.5 µM

SMILES: C[C@@H]1COCCN1c1cc(C2([S@](C)(=N)=O)CC2)nc(-c2cc[nH]c3nccc2-3)n1 [Ceralasertib, reference compound]
Log P [3]: 1.91 | IC50 (MDA-MB-231 cells [2]; Homo sapiens, single agent): 4.4 ± 0.4 µM | fold shift = IC50 (−OLAP)/IC50 (+OLAP) (MDA-MB-231 cells [2]): 0.9

SMILES: Cc1cc[n+]2c(c1)-c1cc(C)cc[n+]1[Ru-4]213([n+]2ccc(C)cc2-c2cc(C)cc[n+]21)[n+]1cccc2c4nc5cc(C)cc(C)c5nc4c4ccc[n+]3c4c21 [Compound 7, [Ru(4,4′dmb)2(dmdppz)]^2+]
Synergy with Olaparib (CI scores of less than 0.9 considered synergistic) (MDA-MB-231 cells [1]): additive relationship with Olaparib | IC50 (MDA-MB-231 cells [2]; single agent): 34.3 ± 0.5 µM | fold shift = IC50 (−OLAP)/IC50 (+OLAP) (MDA-MB-231 cells [2]): 2.3

Second part, led by results:

IC50 (MDA-MB-231 cells [2]; single agent): 11.6 ± 3.2 µM | fold shift = IC50 (−OLAP)/IC50 (+OLAP) (MDA-MB-231 cells [2]): 6.8
SMILES: Oc1ccc(-c2nc3c4ccc[n+]5c4c4c(ccc[n+]4[Ru-4]546([n+]5cccc7ccc8ccc[n+]4c8c75)[n+]4cccc5ccc7ccc[n+]6c7c54)c3[nH]2)cc1 [Compound 4, [Ru(phen)2(H-PIP)]^2+]
Synergy with Olaparib (CI scores of less than 0.9 considered synergistic) (MDA-MB-231 cells [1]): additive relationship with Olaparib

IC50 (MDA-MB-231 cells [2]; Homo sapiens, single agent): 0.46 ± 0.01 µM | fold shift = IC50 (−OLAP)/IC50 (+OLAP) (MDA-MB-231 cells [2]): 1.7
SMILES: CNCc1ccc(-c2cc(-c3nc(-c4ccc(S(=O)(=O)C(C)C)cc4)cnc3N)on2)cc1 [Berzosertib, reference compound]
Log P [3]: 3.16

IC50 (MDA-MB-231 cells [2]; Homo sapiens, single agent): 12.1 ± 3 µM
SMILES: O=c1[nH]cc(F)c(=O)[nH]1 [Fluorouracil, reference compound]

IC50 (MDA-MB-231 cells [2]; Homo sapiens, single agent): > 100 µM
SMILES: O=c1c(O)c(-c2ccc(O)c(O)c2)oc2cc(O)cc(O)c12 [Quercetin, reference compound]

IC50 (MDA-MB-231 cells [2]; single agent): > 100 µM | fold shift = IC50 (−OLAP)/IC50 (+OLAP) (MDA-MB-231 cells [2]): >1.3
SMILES: [Ru+2].c1ccc(-c2ccccn2)nc1.c1ccc(-c2ccccn2)nc1.c1ccc(-c2nc3c4cccnc4c4ncccc4c3[nH]2)cc1 [Compound 1, [Ru(bpy)2(PIP)]^2+]

IC50 (MCF7 cells [7]): 22.5 ± 4.1 µM | IC50 (MDA-MB-231 cells [2]; Homo sapiens, single agent): 25.1 ± 2.4 µM
SMILES: COc1cc(/C=C/C(=O)CC(=O)/C=C/c2ccc(O)c(OC)c2)ccc1O [Curcumin, reference compound]
Synergy with Olaparib (CI scores of less than 0.9 considered synergistic) (MDA-MB-231 cells [1]): synergistic over most of the tested concentrations | day of complete disintegration of spheroids (MCF7 3D tumor spheroids): 9 days | hatching rate [5]: neither 10 nor Curcumin impacted the hatching rate significantly | IC50 (MCF10A cells): 37.4 ± 6 µM | Log P [3]: 4.12 | inhibition of colony formation (MDA-MB-231R cells; MDA-MB-231R, compound 1 μM alongside Olaparib 0.1–100 μM, 72 h): retains the ability to inhibit colony formation in a similar manner to the parental MDA-MB-231 cells | day of complete disintegration of spheroids [10]: 6 days
